Assay results as given in patent publication US11945813B2, “5-substituted 4-amino-1H-benzo[c][1,2,6]thiadiazine 2,2-dioxides and formulations and uses thereof” (Firmenich Incorporated, priority 2018, dated 2024).

Biological target: T1, T1R2/T1R3 taste receptor (Homo sapiens, UniProt Q8TE23)
T1 sequence (Q8TE23 20-839): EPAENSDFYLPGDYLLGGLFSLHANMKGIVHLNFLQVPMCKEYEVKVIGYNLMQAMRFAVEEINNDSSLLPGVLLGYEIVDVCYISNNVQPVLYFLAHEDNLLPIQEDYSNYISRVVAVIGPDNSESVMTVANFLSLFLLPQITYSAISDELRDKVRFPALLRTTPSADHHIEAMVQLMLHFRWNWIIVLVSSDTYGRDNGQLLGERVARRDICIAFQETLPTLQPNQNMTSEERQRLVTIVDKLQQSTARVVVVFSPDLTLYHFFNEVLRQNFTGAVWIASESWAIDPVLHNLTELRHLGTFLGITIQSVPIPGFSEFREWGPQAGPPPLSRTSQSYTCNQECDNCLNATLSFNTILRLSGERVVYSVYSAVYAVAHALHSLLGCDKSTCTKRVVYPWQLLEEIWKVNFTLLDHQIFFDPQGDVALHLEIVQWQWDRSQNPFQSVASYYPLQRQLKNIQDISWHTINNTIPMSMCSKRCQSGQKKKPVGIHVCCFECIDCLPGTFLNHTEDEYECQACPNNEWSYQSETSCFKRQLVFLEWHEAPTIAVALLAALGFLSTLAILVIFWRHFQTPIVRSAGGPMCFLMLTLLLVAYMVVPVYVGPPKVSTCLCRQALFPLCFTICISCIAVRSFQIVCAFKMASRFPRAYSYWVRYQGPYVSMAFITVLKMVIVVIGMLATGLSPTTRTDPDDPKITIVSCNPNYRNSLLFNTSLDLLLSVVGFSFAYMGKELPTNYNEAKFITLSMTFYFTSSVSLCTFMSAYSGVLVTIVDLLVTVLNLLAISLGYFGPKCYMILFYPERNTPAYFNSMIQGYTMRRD
T1 sequence (Q7RTX0 21-852 partner): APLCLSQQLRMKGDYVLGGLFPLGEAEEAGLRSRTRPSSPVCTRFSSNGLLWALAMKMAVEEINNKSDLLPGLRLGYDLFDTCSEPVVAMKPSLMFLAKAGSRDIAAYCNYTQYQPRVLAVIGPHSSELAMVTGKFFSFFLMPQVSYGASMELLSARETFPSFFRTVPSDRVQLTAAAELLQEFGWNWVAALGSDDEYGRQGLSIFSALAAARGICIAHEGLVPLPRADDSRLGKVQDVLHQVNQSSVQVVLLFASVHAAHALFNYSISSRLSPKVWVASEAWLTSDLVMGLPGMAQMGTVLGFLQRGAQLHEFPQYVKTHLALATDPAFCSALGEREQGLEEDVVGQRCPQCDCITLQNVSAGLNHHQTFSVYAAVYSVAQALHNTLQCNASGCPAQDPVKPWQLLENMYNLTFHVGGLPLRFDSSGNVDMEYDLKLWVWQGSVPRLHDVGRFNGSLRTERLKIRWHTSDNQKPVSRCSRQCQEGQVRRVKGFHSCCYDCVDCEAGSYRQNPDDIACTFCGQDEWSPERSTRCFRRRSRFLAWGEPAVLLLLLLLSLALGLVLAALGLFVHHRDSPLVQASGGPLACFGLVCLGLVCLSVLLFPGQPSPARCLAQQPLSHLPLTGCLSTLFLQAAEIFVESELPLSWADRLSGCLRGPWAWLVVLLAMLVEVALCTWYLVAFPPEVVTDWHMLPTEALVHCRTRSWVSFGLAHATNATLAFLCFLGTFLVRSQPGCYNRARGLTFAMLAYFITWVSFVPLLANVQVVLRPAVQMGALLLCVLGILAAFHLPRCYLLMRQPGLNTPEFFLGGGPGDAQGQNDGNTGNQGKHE
Assay: Receptor-based assay: sweetener EC50 alone and with test compound (enhancement ratio)
Format: cell-based
Details: for Fructose Enhancement EC50 Ratio: sweetener fructose; for Sucralose Enhancement EC50 Ratio: sweetener sucralose; for Sucrose Enhancement EC50 Ratio: sweetener sucrose
Experimental: Potencies (EC50 values) for the sweeteners sucrose, sucralose, and fructose were measured against the T1R2/T1R3 taste receptor. EC50 was determined using the sweetener alone and in the presence of 3 μM, 10 μM, or 50 μM of test compound. EC50 ratios were calculated by the ratio of potency with and without the test compound. An “A” value indicates an enhancement ratio of greater than 20. A “B” value indicates an enhancement ratio from 10 to 20. A “C” value indicates an enhancement ratio greater than 1 and less than 10.

## NC1=NS(=O)(=O)Nc2cccc(OC[C@H]3CCCN(c4cccc(C(=O)NC5CC5)n4)C3)c21 [Compound 400, (S)-6-(3-(((4-amino-2,2-dioxido-1H-benzo[c][1,2,6]thiadiazin-5-yl)oxy)methyl)piperidin-1-yl)-N-cyclopropylpicolinamide]
10 μM test compound
  Fructose Enhancement EC50 Ratio: C (A “C” value indicates an enhancement ratio greater than 1 and less than 10)
  Sucralose Enhancement EC50 Ratio: A (An “A” value indicates an enhancement ratio of greater than 20)
  Sucrose Enhancement EC50 Ratio: C (A “C” value indicates an enhancement ratio greater than 1 and less than 10)
50 μM test compound
  Fructose Enhancement EC50 Ratio: C (A “C” value indicates an enhancement ratio greater than 1 and less than 10)
  Sucralose Enhancement EC50 Ratio: A (An “A” value indicates an enhancement ratio of greater than 20)
  Sucrose Enhancement EC50 Ratio: B (A “B” value indicates an enhancement ratio from 10 to 20)
3 μM test compound
  Sucrose Enhancement EC50 Ratio: C (A “C” value indicates an enhancement ratio greater than 1 and less than 10)

## CNC(=O)c1cccc(N2CCC[C@H](COc3cccc4c3C(N)=NS(=O)(=O)N4)C2)n1 [Compound 401]
10 μM test compound
  Sucralose Enhancement EC50 Ratio: A (An “A” value indicates an enhancement ratio of greater than 20)
  Sucrose Enhancement EC50 Ratio: B (A “B” value indicates an enhancement ratio from 10 to 20)
50 μM test compound
  Sucralose Enhancement EC50 Ratio: A (An “A” value indicates an enhancement ratio of greater than 20)
  Sucrose Enhancement EC50 Ratio: C (A “C” value indicates an enhancement ratio greater than 1 and less than 10)
3 μM test compound
  Sucrose Enhancement EC50 Ratio: C (A “C” value indicates an enhancement ratio greater than 1 and less than 10)

## CCNC(=O)c1cccc(N2CCC[C@H](COc3cccc4c3C(N)=NS(=O)(=O)N4)C2)n1 [Compound 402]
10 μM test compound
  Sucralose Enhancement EC50 Ratio: A (An “A” value indicates an enhancement ratio of greater than 20)
  Sucrose Enhancement EC50 Ratio: C (A “C” value indicates an enhancement ratio greater than 1 and less than 10)
50 μM test compound
  Sucralose Enhancement EC50 Ratio: A (An “A” value indicates an enhancement ratio of greater than 20)
  Sucrose Enhancement EC50 Ratio: C (A “C” value indicates an enhancement ratio greater than 1 and less than 10)
3 μM test compound
  Sucrose Enhancement EC50 Ratio: C (A “C” value indicates an enhancement ratio greater than 1 and less than 10)

## CCCNC(=O)c1cccc(N2CCC[C@H](COc3cccc4c3C(N)=NS(=O)(=O)N4)C2)n1 [Compound 403]
10 μM test compound
  Fructose Enhancement EC50 Ratio: C (A “C” value indicates an enhancement ratio greater than 1 and less than 10)
  Sucralose Enhancement EC50 Ratio: A (An “A” value indicates an enhancement ratio of greater than 20)
  Sucrose Enhancement EC50 Ratio: C (A “C” value indicates an enhancement ratio greater than 1 and less than 10)
50 μM test compound
  Sucralose Enhancement EC50 Ratio: A (An “A” value indicates an enhancement ratio of greater than 20)
  Sucrose Enhancement EC50 Ratio: C (A “C” value indicates an enhancement ratio greater than 1 and less than 10)
3 μM test compound
  Sucrose Enhancement EC50 Ratio: C (A “C” value indicates an enhancement ratio greater than 1 and less than 10)

## COCCNC(=O)c1cccc(N2CCC[C@H](COc3cccc4c3C(N)=NS(=O)(=O)N4)C2)n1 [Compound 405]
10 μM test compound
  Fructose Enhancement EC50 Ratio: C (A “C” value indicates an enhancement ratio greater than 1 and less than 10)
  Sucralose Enhancement EC50 Ratio: B (A “B” value indicates an enhancement ratio from 10 to 20)
  Sucrose Enhancement EC50 Ratio: C (A “C” value indicates an enhancement ratio greater than 1 and less than 10)
3 μM test compound
  Sucrose Enhancement EC50 Ratio: C (A “C” value indicates an enhancement ratio greater than 1 and less than 10)

## CN(C)CCNC(=O)c1cccc(N2CCC[C@H](COc3cccc4c3C(N)=NS(=O)(=O)N4)C2)n1 [Compound 406]
10 μM test compound
  Fructose Enhancement EC50 Ratio: C (A “C” value indicates an enhancement ratio greater than 1 and less than 10)
  Sucralose Enhancement EC50 Ratio: A (An “A” value indicates an enhancement ratio of greater than 20)
  Sucrose Enhancement EC50 Ratio: B (A “B” value indicates an enhancement ratio from 10 to 20)
50 μM test compound
  Fructose Enhancement EC50 Ratio: C (A “C” value indicates an enhancement ratio greater than 1 and less than 10)
  Sucrose Enhancement EC50 Ratio: B (A “B” value indicates an enhancement ratio from 10 to 20)
3 μM test compound
  Sucrose Enhancement EC50 Ratio: C (A “C” value indicates an enhancement ratio greater than 1 and less than 10)

## CC(C)NC(=O)c1cccc(N2CCC[C@H](COc3cccc4c3C(N)=NS(=O)(=O)N4)C2)n1 [Compound 407]
10 μM test compound
  Fructose Enhancement EC50 Ratio: C (A “C” value indicates an enhancement ratio greater than 1 and less than 10)
  Sucrose Enhancement EC50 Ratio: B (A “B” value indicates an enhancement ratio from 10 to 20)
50 μM test compound
  Fructose Enhancement EC50 Ratio: C (A “C” value indicates an enhancement ratio greater than 1 and less than 10)
  Sucrose Enhancement EC50 Ratio: C (A “C” value indicates an enhancement ratio greater than 1 and less than 10)

## NC1=NS(=O)(=O)Nc2cccc(OC[C@H]3CCCN(c4cccc(C(=O)NC5CCCC5)n4)C3)c21 [Compound 408]
50 μM test compound
  Fructose Enhancement EC50 Ratio: C (A “C” value indicates an enhancement ratio greater than 1 and less than 10)
  Sucralose Enhancement EC50 Ratio: A (An “A” value indicates an enhancement ratio of greater than 20)
  Sucrose Enhancement EC50 Ratio: B (A “B” value indicates an enhancement ratio from 10 to 20)
10 μM test compound
  Sucralose Enhancement EC50 Ratio: A (An “A” value indicates an enhancement ratio of greater than 20)
  Sucrose Enhancement EC50 Ratio: B (A “B” value indicates an enhancement ratio from 10 to 20)
3 μM test compound
  Sucrose Enhancement EC50 Ratio: C (A “C” value indicates an enhancement ratio greater than 1 and less than 10)

## NC1=NS(=O)(=O)Nc2cccc(OC[C@H]3CCCN(c4cccc(C(=O)NC5CCCCC5)n4)C3)c21 [Compound 409]
10 μM test compound
  Sucralose Enhancement EC50 Ratio: A (An “A” value indicates an enhancement ratio of greater than 20)
  Sucrose Enhancement EC50 Ratio: C (A “C” value indicates an enhancement ratio greater than 1 and less than 10)
50 μM test compound
  Sucralose Enhancement EC50 Ratio: A (An “A” value indicates an enhancement ratio of greater than 20)
  Sucrose Enhancement EC50 Ratio: B (A “B” value indicates an enhancement ratio from 10 to 20)
3 μM test compound
  Sucrose Enhancement EC50 Ratio: C (A “C” value indicates an enhancement ratio greater than 1 and less than 10)

## CN(C)C(=O)c1cccc(N2CCC[C@H](COc3cccc4c3C(N)=NS(=O)(=O)N4)C2)n1 [Compound 410]
50 μM test compound
  Fructose Enhancement EC50 Ratio: C (A “C” value indicates an enhancement ratio greater than 1 and less than 10)
  Sucralose Enhancement EC50 Ratio: A (An “A” value indicates an enhancement ratio of greater than 20)
  Sucrose Enhancement EC50 Ratio: B (A “B” value indicates an enhancement ratio from 10 to 20)
10 μM test compound
  Sucralose Enhancement EC50 Ratio: B (A “B” value indicates an enhancement ratio from 10 to 20)
  Sucrose Enhancement EC50 Ratio: B (A “B” value indicates an enhancement ratio from 10 to 20)
3 μM test compound
  Sucrose Enhancement EC50 Ratio: C (A “C” value indicates an enhancement ratio greater than 1 and less than 10)

## CCN(CC)C(=O)c1cccc(N2CCC[C@H](COc3cccc4c3C(N)=NS(=O)(=O)N4)C2)n1 [Compound 411]
10 μM test compound
  Sucralose Enhancement EC50 Ratio: B (A “B” value indicates an enhancement ratio from 10 to 20)
  Sucrose Enhancement EC50 Ratio: C (A “C” value indicates an enhancement ratio greater than 1 and less than 10)
3 μM test compound
  Sucrose Enhancement EC50 Ratio: C (A “C” value indicates an enhancement ratio greater than 1 and less than 10)
